Assay results as given in ChEMBL document CHEMBL6071168, “Discovery of novel fructose-1,6-bisphosphatase inhibitors bearing benzimidazole scaffold using a dual-ligand molecular docking model” (Eur J Med Chem, 2024).
The source made the active and inactive calls. The calls are words filed in the database; no cut-off is given here.

Columns and labels:
Homo sapiens = organism: Homo sapiens; experiment: Inhibition of Fructose-1,6-bisphosphatase (unknown origin) preincubated for 10 min followed by addition of NADP+, PGI,G6PDH at 10 uM measured after 40 min by absorption based analysis relative to control; details: time 50.0 min
Cytochrome P450 1A2 = target: T1, Cytochrome P450 1A2 (Homo sapiens, UniProt P05177); experiment: Inhibition of CYP1A2 (unknown origin) incubated for 30 min in presence of NADPH by LC-MS/MS analysis; type: ADME
T1 sequence (P05177 whole entry): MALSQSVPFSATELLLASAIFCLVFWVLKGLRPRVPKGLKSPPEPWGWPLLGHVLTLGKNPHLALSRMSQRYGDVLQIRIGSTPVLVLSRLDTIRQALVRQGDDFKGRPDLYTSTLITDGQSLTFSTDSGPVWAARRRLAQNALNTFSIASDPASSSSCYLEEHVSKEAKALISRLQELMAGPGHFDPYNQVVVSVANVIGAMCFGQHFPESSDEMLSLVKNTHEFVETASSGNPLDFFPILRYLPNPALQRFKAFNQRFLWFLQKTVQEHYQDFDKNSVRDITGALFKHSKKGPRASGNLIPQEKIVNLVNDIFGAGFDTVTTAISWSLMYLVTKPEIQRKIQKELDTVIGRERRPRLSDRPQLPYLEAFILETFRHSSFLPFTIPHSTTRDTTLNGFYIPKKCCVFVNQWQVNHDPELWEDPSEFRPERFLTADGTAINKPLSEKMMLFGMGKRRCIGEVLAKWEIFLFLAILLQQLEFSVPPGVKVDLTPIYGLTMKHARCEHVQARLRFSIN

[1] = Inhibition of Fructose-1,6-bisphosphatase (unknown origin) preincubated for 10 min followed by addition of NADP+, PGI,G6PDH and measured after 40 min by absorption based analysis; parameters: species or system Homo sapiens
Mus musculus = experiment: Anti-diabetic activity against 16 hrs fasted ICR mouse assessed as reduced blood glucose level at 150 mg/kg, po measured after 90 min by oral pyruvate tolerance test; type: functional, organism-based

Structure (SMILES) | inhibition (Homo sapiens) | other results
O=S(=O)(Nc1ccccc1-c1nc2ccccc2n1C1CCCCC1)c1ccc(Cl)cc1 | 39.8% | 
O=c1cc(-c2ccccc2)oc2ccc3ccccc3c12 [BETA-NAPHTHOFLAVONE] |  | IC50 (Cytochrome P450 1A2): 148 nM
COc1ccc(S(=O)(=O)Nc2cccc(-c3nc4ccccc4n3C3CCCCC3)c2)cc1 | 47.4% | 
COc1ccc(S(=O)(=O)Nc2ccccc2-c2nc3ccccc3n2-c2ccc(NC(C)=O)cc2)cc1 | 36.8% | 
O=S(=O)(Nc1cccc(-c2nc3ccccc3n2Cc2ccc(Cl)cc2)c1)c1ccc(Cl)cc1 | 16.2% | 
Nc1ncnc2c1ncn2[C@@H]1O[C@H](COP(=O)(O)O)[C@@H](O)[C@H]1O [ADENOSINE PHOSPHATE] | 81.3% | IC50 [1]: 3290 nM
COc1ccc(S(=O)(=O)Nc2cc(Cl)cc(-c3nc4ccccc4[nH]3)c2)cc1 | 18.2% | 
O=S(=O)(Nc1ccccc1-c1nc2ccccc2n1Cc1ccc(Cl)cc1)c1ccc(Cl)cc1 | 10.2% | 
COc1ccc(S(=O)(=O)Nc2ccccc2-c2nc3ccccc3n2C2CCCCC2)cc1 | 17.3% | 
CC(=O)Nc1ccc(-n2c(-c3cccc(NS(=O)(=O)c4ccc(Cl)cc4)c3)nc3ccccc32)cc1 | 21.1% | 
COc1ccc(S(=O)(=O)Nc2cccc(-c3nc4ccccc4n3-c3ccc(Cl)cc3)c2)cc1 | 52.6% | IC50 [1]: 5350 nM
COc1ccc(S(=O)(=O)Nc2cccc(-c3nc4ccccc4n3C)c2)cc1 | 5.7% | 
COc1ccc(S(=O)(=O)NC(=O)c2cccc(-c3nc4ccccc4[nH]3)c2)cc1 | 20.8% | 
CC(C)n1c(-c2cccc(NS(=O)(=O)c3ccc(Cl)cc3)c2)nc2ccccc21 | 7.1% | 
O=C(NS(=O)(=O)c1ccc(Cl)cc1)c1cc(Cl)cc(-c2nc3ccccc3[nH]2)c1 | 88.3% | IC50 [1]: 1400 nM; Activity (Mus musculus): Active
O=S(=O)(Nc1cc(Cl)cc(-c2nc3ccccc3[nH]2)c1)c1ccc(Cl)cc1 | 5.4% | 
O=C(NS(=O)(=O)c1ccc(F)cc1)c1cc(Cl)cc(-c2nc3ccccc3[nH]2)c1 | 96.3% | IC50 [1]: 2160 nM; Activity (Mus musculus): Active
Cn1c(-c2cccc(C(=O)NS(=O)(=O)c3ccc(Cl)cc3)c2)nc2ccccc21 | 4% | 
O=C(NS(=O)(=O)c1ccc(Cl)cc1)c1cccc(-c2nc3ccccc3[nH]2)c1 | 0% | 
